This passage reports EC50 and MIC results from patent publication US12173018B2, “Penicillin-binding protein inhibitors” (priority 2018, dated 2024).

Structures are written as SMILES. pEC50: −log10 of the molar value.

Chain of E. coli PBP4 (P24228 21-477): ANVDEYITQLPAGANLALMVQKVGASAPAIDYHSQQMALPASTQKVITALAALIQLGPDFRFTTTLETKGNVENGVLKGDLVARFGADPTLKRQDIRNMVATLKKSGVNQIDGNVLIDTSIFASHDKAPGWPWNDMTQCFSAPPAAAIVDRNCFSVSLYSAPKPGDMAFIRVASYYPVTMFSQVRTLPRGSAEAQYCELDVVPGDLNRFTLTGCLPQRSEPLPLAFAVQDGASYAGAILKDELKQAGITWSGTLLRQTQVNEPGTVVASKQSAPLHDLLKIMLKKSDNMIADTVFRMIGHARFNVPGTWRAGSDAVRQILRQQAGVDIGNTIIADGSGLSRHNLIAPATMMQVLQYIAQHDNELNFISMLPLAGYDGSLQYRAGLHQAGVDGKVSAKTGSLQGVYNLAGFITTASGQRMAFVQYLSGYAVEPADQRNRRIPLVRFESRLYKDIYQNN

The first assay has as its target E. coli PBP4 (Escherichia coli (strain K12), UniProt P24228). Briefly: E. coli PBP4 Bocillin-FL fluorescence polarization competition binding assay. To be noted: fluorescence polarization competition binding with Bocillin-FL; read-out: E. coli K12 PBP4 Potency (EC50). The text has this:
To determine the ability of boronic acid-based test PBP inhibitors to bind Penicillin Binding Proteins (PBPs), Bocillin-FL (fluorescently-labeled penicillin V; ThermoFisher Scientific) was used in a fluorescence polarization (FP) competition binding assay to assess inhibitor binding to PBP2, PBP3 or PBP4 from Escherichia coli. PBPs were cloned and purified as described previously (King, D. T, et al., ACS Infectious Diseases 2015, 1, 175-184). To establish assay conditions for competition binding, an enzyme titration/saturation binding experiment was initially performed. Bocillin-FL was prepared at 0.2 μM in a buffer comprised of 50 mM Hepes (pH 8.0), 300 mM NaCl and 5% (v/v) glycerol. Saturation binding was performed by mixing 40 μl of PBP solutions ranging in concentrations from 0-12 μM with 40 μl of the 0.2 μM Bocillin-FL solution, in individual wells of a black 384-well microplate. FP was measured immediately upon mixing (Excitation, 490 nm; Emission, 520 nm; g-factor, 0.96), using a Cytation3 (BioTek) microplate reader and measured continuously for up to 120 minutes. […] Assays (80 μl final volume) were performed with PBPs at a final concentration of 1.5 μM, Bocillin-FL at 0.1 μM and beta-lactam concentrations that ranged from 0-1000 μM. […] Bocillin-FL was added and the FP immediately measured for 60 minutes (90 minutes for PBP2). The beta-lactam potency was reported as the concentration of beta-lactam required to reduce binding of Bocillin-FL by […] (EC50). […] Binding assays for boronic acid PBP inhibitors were performed in an identical fashion.
Broadly, the pEC50 is −log10 of the EC50, conventionally taken in molar units. In the case of `CCN1CCN(C(=O)NC(C(=O)N[C@H]2Cc3cc(F)cc(C(=O)O)c3OB2O)c2csc(N)n2)C(=O)C1=O` (stereo partly drawn) [Example 16, (3R)-3-(2-(2-aminothiazol-4-yl)-2-(4-ethyl-2,3-dioxopiperazine-1-carboxamido)acetamido)-6-fluoro-2-hydroxy-3,4-dihydro-2H-benzo[e][1,2]oxaborinine-8-carboxylic acid], the pEC50 is below 3.30. On the same count and under the same terms, next, `CCN1CCN(C(=O)NC(C(=O)N[C@H]2Cc3cccc(C(=O)O)c3OB2O)c2ccc(O)c(O)c2Cl)C(=O)C1=O` (stereo partly drawn) [Example 37, (3R)-3-(2-(2-chloro-3,4-dihydroxyphenyl)-2-(4-ethyl-2,3-dioxopiperazine-1-carboxamido)acetamido)-2-hydroxy-3,4-dihydro-2H-benzo[e][1,2]oxaborinine-8-carboxylic acid]: below 3.30; `CCN1CCN(C(=O)NC(C(=O)N[C@H]2Cc3cccc(C(=O)O)c3OB2O)c2cnc(N)s2)C(=O)C1=O` (stereo partly drawn) [Example 51, (3R)-3-(2-(2-aminothiazol-5-yl)-2-(4-ethyl-2,3-dioxopiperazine-1-carboxamido)acetamido)-2-hydroxy-3,4-dihydro-2H-benzo[e][1,2]oxaborinine-8-carboxylic acid]: below 3.30. On the same count and under the same terms, the value for `CCCN1CCN(C(=O)NC(C(=O)N[C@H]2Cc3cccc(C(=O)O)c3OB2O)c2ccc(O)c(O)c2Cl)C(=O)C1=O` (stereo partly drawn) [Example 82, (3R)-3-(2-(2-chloro-3,4-dihydroxyphenyl)-2-(2,3-dioxo-4-propylpiperazine-1-carboxamido)acetamido)-2-hydroxy-3,4-dihydro-2H-benzo[e][1,2]oxaborinine-8-carboxylic acid] was below 3.30; that for `CCN1CCN(C(=O)NC(C(=O)N[C@H]2Cc3cccc(C(=O)O)c3OB2O)c2ccc(O)cc2F)C(=O)C1=O` (stereo partly drawn) [Example 87, (3R)-3-(2-(4-ethyl-2,3-dioxopiperazine-1-carboxamido)-2-(2-fluoro-4-hydroxyphenyl)acetamido)-2-hydroxy-3,4-dihydro-2H-benzo[e][1,2]oxaborinine-8-carboxylic acid] was below 3.30; that for `CCN1CCN(C(=O)NC(C(=O)N[C@H]2Cc3cccc(C(=O)O)c3OB2O)c2cc(O)c(O)cc2F)C(=O)C1=O` (stereo partly drawn) [Example 90, (3R)-3-(2-(4-ethyl-2,3-dioxopiperazine-1-carboxamido)-2-(2-fluoro-4,5-dihydroxyphenyl)acetamido)-2-hydroxy-3,4-dihydro-2H-benzo[e][1,2]oxaborinine-8-carboxylic acid] was below 3.30. As to `CCN1CCN(C(=O)N[C@@H](C(=O)N[C@H]2Cc3ccc(F)c(C(=O)O)c3OB2O)[C@@H](C)O)C(=O)C1=O` [Example 110, (R)-3-((2R,3R)-2-(4-ethyl-2,3-dioxopiperazine-1-carboxamido)-3-hydroxybutanamido)-7-fluoro-2-hydroxy-3,4-dihydro-2H-benzo[e][1,2]oxaborinine-8-carboxylic acid], the pEC50 is below 3.30. Still for that read-out and setting: next, `CCN1CCN(C(=O)NC(C(=O)N[C@H]2Cc3cccc(C(=O)O)c3OB2O)c2cccc(O)n2)C(=O)C1=O` (stereo partly drawn) [Example 117, (3R)-3-(2-(4-ethyl-2,3-dioxopiperazine-1-carboxamido)-2-(6-hydroxypyridin-2-yl)acetamido)-2-hydroxy-3,4-dihydro-2H-benzo[e][1,2]oxaborinine-8-carboxylic acid]: below 3.30.

The target of the next assay is E. coli PBP1a (Escherichia coli (strain K12), UniProt P02918). The experiment in a line: Radioligand competition binding assay with 14C-labeled boronic acid probe, PBP1a.
Chain of E. coli PBP1a (P02918 whole entry): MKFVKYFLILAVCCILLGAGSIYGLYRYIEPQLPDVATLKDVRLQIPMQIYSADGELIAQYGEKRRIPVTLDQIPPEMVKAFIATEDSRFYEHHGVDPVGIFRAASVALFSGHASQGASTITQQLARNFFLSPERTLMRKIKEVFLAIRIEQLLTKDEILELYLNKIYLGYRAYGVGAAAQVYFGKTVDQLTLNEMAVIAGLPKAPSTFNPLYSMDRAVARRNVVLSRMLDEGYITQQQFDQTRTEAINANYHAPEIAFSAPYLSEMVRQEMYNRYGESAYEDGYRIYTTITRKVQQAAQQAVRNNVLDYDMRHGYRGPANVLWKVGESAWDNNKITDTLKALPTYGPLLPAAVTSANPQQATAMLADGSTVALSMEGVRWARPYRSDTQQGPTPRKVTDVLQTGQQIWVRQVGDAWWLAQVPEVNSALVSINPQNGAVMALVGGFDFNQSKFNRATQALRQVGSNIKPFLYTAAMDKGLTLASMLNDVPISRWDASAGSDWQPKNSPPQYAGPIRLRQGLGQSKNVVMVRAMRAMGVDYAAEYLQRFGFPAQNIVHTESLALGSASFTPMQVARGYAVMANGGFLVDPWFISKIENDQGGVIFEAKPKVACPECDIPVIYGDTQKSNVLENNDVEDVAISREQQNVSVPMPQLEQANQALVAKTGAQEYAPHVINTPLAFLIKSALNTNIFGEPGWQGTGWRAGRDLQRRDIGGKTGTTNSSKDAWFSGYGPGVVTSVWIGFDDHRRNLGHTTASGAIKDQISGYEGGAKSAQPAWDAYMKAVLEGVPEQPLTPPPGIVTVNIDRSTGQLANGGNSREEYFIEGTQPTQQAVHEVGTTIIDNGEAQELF
Settings: not given
Summed up: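 Purified E. coli PBP1a (0.1 μM) preincubated 60 min with test boronic acid inhibitor in 20 mM Tris pH 7.5, 500 mM NaCl, 0.1% Triton X-100, then 60 min with 20 μM ^14C-labeled boronic acid probe. Bound probe recovered by spin desalting and counted by scintillation; EC50 reported.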
Compound `CCN1CCN(C(=O)NC(C(=O)N[C@H]2Cc3cccc(C(=O)O)c3OB2O)c2ccc(O)c(O)c2F)C(=O)C1=O` (stereo partly shown) [Example 70] had a negative logarithm of the EC50 (pEC50) above 5.00. Same read-out and setting: the value for `O=C(O)c1cccc2c1OB(O)[C@@H](NC(=O)C(NC(=O)N1CCN(CCF)C(=O)C1=O)c1ccc(O)c(O)c1Cl)C2` (stereo partly drawn) [Example 71, (3R)-3-(2-(2-chloro-3,4-dihydroxyphenyl)-2-(4-(2-fluoroethyl)-2,3-dioxopiperazine-1-carboxamido)acetamido)-2-hydroxy-3,4-dihydro-2H-benzo[e][1,2]oxaborinine-8-carboxylic acid] was above 5.00. In the case of `CCN1CCN(C(=O)NC(C(=O)N[C@H]2Cc3cccc(C(=O)O)c3OB2O)c2ccc(S(N)(=O)=O)cc2)C(=O)C1=O` (stereo partly drawn) [Example 102, (3R)-3-(2-(4-ethyl-2,3-dioxopiperazine-1-carboxamido)-2-(4-sulfamoylphenyl)acetamido)-2-hydroxy-3,4-dihydro-2H-benzo[e][1,2]oxaborinine-8-carboxylic acid], the pEC50 is 4.00 to 5.00. The same measure, in the same setting: the value for `NS(=O)(=O)c1ccc(C(NC(=O)N2CCN(CCF)C(=O)C2=O)C(=O)N[C@H]2Cc3cccc(C(=O)O)c3OB2O)cc1` (stereo partly drawn) [Example 103, (3R)-3-(2-(4-(2-fluoroethyl)-2,3-dioxopiperazine-1-carboxamido)-2-(4-sulfamoylphenyl)acetamido)-2-hydroxy-3,4-dihydro-2H-benzo[e][1,2]oxaborinine-8-carboxylic acid] was 4.00 to 5.00.

Another assay concerns P. aeruginosa ATCC 27853. The experiment in a line: Broth microdilution MIC, P. aeruginosa ATCC 27853. It is filed as cell-based. The following applies: Pseudomonas aeruginosa, ATCC27853, read-out: MIC P. aeruginosa ATCC 27853. The gist of the method: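 Colonies from Mueller Hinton II agar were grown 3-5 hours at 37° C in cation-supplemented broth, adjusted by OD600, then added to 2-fold compound dilutions at 5×10^5 CFU/mL. After 16-20 hours at 37° C, MICs were scored visually.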
For orientation: Dilution methods test growth across graded concentrations, often in twofold steps.
The term MIC denotes the least concentration at which growth counts as inhibited. On to `CCN1C[C@H](CO)N(C(=O)NC(C(=O)N[C@H]2Cc3cccc(C(=O)O)c3OB2O)c2ncc(O)cc2F)C(=O)C1=O` (stereo partly drawn) [Example 234, (3R)-3-(2-((R)-4-ethyl-6-(hydroxymethyl)-2,3-dioxopiperazine-1-carboxamido)-2-(3-fluoro-5-hydroxypyridin-2-yl)acetamido)-2-hydroxy-3,4-dihydro-2H-benzo[e][1,2]oxaborinine-8-carboxylic acid], for which the minimum inhibitory concentration (MIC) was above 128 µg/mL.

The same assay, now with this note: Pseudomonas aeruginosa, ATCC27853; P. aeruginosa ATCC 27853, broth microdilution; read-out: MIC P. aeruginosa ATCC 27853.
In the case of `NCCCN1CCN(C(=O)NC(C(=O)N[C@H]2Cc3cccc(C(=O)O)c3OB2O)c2ccc(O)c(O)c2Cl)C(=O)C1=O` (stereo partly drawn) [Example 233, (3R)-3-(2-(4-(3-aminopropyl)-2,3-dioxopiperazine-1-carboxamido)-2-(2-chloro-3,4-dihydroxyphenyl)acetamido)-2-hydroxy-3,4-dihydro-2H-benzo[e][1,2]oxaborinine-8-carboxylic acid], the MIC was in the range of 2 to 4 µg/mL. Turning to `CCNC(=O)NCCN1CCN(C(=O)NC(C(=O)N[C@H]2Cc3cccc(C(=O)O)c3OB2O)c2ccc(O)c(O)c2Cl)C(=O)C1=O` (stereo partly drawn) [Example 235, (3R)-3-(2-(2-chloro-3,4-dihydroxyphenyl)-2-(4-(2-(3-ethylureido)ethyl)-2,3-dioxopiperazine-1-carboxamido)acetamido)-2-hydroxy-3,4-dihydro-2H-benzo[e][1,2]oxaborinine-8-carboxylic acid], the MIC was 8 to 16 µg/mL. The same measure, in the same setting: next, `NCCCN1CCN(C(=O)N[C@@H](C(=O)N[C@H]2Cc3ccc(F)c(C(=O)O)c3OB2O)c2ccc(O)c(O)c2Cl)C(=O)C1=O` [Example 236, (R)-3-((R)-2-(4-(3-aminopropyl)-2,3-dioxopiperazine-1-carboxamido)-2-(2-chloro-3,4-dihydroxyphenyl)acetamido)-7-fluoro-2-hydroxy-3,4-dihydro-2H-benzo[e][1,2]oxaborinine-8-carboxylic acid]: 0.5 to 1 µg/mL; `CCN1C[C@H](CO)N(C(=O)NC(C(=O)N[C@H]2Cc3ccc(F)c(C(=O)O)c3OB2O)c2ccc(O)c(O)c2Cl)C(=O)C1=O` (stereo partly drawn) [Example 237, (3R)-3-(2-(2-chloro-3,4-dihydroxyphenyl)-2-((R)-4-ethyl-6-(hydroxymethyl)-2,3-dioxopiperazine-1-carboxamido)acetamido)-7-fluoro-2-hydroxy-3,4-dihydro-2H-benzo[e][1,2]oxaborinine-8-carboxylic acid]: 0.5 to 1 µg/mL.

As for `CCN1C[C@H](CCN)N(C(=O)NC(C(=O)N[C@H]2Cc3ccc(F)c(C(=O)O)c3OB2O)c2ccc(O)c(O)c2Cl)C(=O)C1=O` (stereo partly drawn) [Example 238, (3R)-3-(2-((S)-6-(2-aminoethyl)-4-ethyl-2,3-dioxopiperazine-1-carboxamido)-2-(2-chloro-3,4-dihydroxyphenyl)acetamido)-7-fluoro-2-hydroxy-3,4-dihydro-2H-benzo[e][1,2]oxaborinine-8-carboxylic acid], the MIC is 2 to 4 µg/mL. Still for that read-out and setting: next, `CNCCN1CCN(C(=O)NC(C(=O)N[C@H]2Cc3cccc(C(=O)O)c3OB2O)c2ccc(O)c(O)c2Cl)C(=O)C1=O` (stereo partly drawn) [Example 239, (3R)-3-(2-(2-chloro-3,4-dihydroxyphenyl)-2-(4-(2-(methylamino)ethyl)-2,3-dioxopiperazine-1-carboxamido)acetamido)-2-hydroxy-3,4-dihydro-2H-benzo[e][1,2]oxaborinine-8-carboxylic acid]: 8 to 16 µg/mL.
